Results taken from ChEMBL document CHEMBL1201862, “PubChem BioAssay data set” (2004).
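Method: 48-hour compound exposure of cells in 96-well plates, five concentrations, linear interpolation of endpoints. GI50 marks 50% less growth.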 Calls of active or inactive are those of the source. No stated cut-off is given here; in the data, active = GI50 up to about 1.1 µM and inactive = higher.

What was measured:
Experiment in all cases: inhibition of tumour cell growth, NCI panel, 48 h
[1] = tested on: T47D
[2] = tested on: Hs-578T
[3] = tested on: SK-OV-3
[4] = tested on: BT-549
[5] = tested on: SNB-75
[6] = tested on: SNB-19
[7] = tested on: RPMI-8226
[8] = tested on: EKVX
[9] = tested on: DU-145
[10] = tested on: MDA-N
[11] = tested on: SF-295
[12] = tested on: PC-3
[13] = tested on: NCI-H522
[14] = tested on: SK-MEL-5
[15] = tested on: OVCAR-3
[16] = tested on: MDA-MB-231
[17] = tested on: CCRF-CEM
[18] = tested on: ACHN
[19] = tested on: U-251
[20] = tested on: OVCAR-4
[21] = tested on: UACC-62
[22] = tested on: A498
[23] = tested on: HL-60
[24] = tested on: OVCAR-8
[25] = tested on: HCT-116
[26] = tested on: SR
[27] = tested on: NCI/ADR-RES
[28] = tested on: HOP-62
[29] = tested on: CAKI-1
[30] = tested on: SF-539
[31] = tested on: MDA-MB-435
[32] = tested on: HOP-92
[33] = tested on: KM12
[34] = tested on: Malme-3M
[35] = tested on: MCF7
[36] = tested on: LOX IMVI
[37] = tested on: MOLT-4
[38] = tested on: UACC-257
[39] = tested on: HT-29
[40] = tested on: HCC 2998
[41] = tested on: SK-MEL-28
[42] = tested on: IGROV-1
[43] = tested on: NCI-H23
[44] = tested on: SK-MEL-2
[45] = tested on: SN12C
[46] = tested on: NCI-H460
[47] = tested on: HCT-15
[48] = tested on: TK-10
[49] = tested on: SW-620
[50] = tested on: M14
[51] = tested on: COLO 205
[52] = tested on: 786-0
[53] = tested on: NCI-H226
[54] = tested on: OVCAR-5
[55] = tested on: A549
[56] = tested on: K562
[57] = tested on: UO-31
[58] = tested on: SF-268
[59] = tested on: RXF 393

Measured: GI50

CCOC(=O)n1c2ccccc2c2c(O)c(OC)c3c(c21)C(=O)NC3=O
17.3 µM: [47]
inactive: [1] 95.1 µM | [2] 59.4 µM | [3] 34.6 µM | [4] > 100 µM | [5] 37.8 µM | [6] 84.5 µM | [7] 58.5 µM | [8] > 100 µM | [9] 30 µM | [10] > 100 µM | [11] 75.3 µM | [12] 45.8 µM | [13] 22.6 µM | [14] 37.1 µM | [15] 22.2 µM | [16] 20.6 µM | [17] 13.1 µM | [18] 19.8 µM | [19] 32 µM | [20] 44.6 µM | [21] 37.7 µM | [22] 78.7 µM | [23] 20.7 µM | [24] 31.8 µM | [25] 20.1 µM | [26] 20.5 µM | [27] 28.6 µM | [28] 23 µM | [29] 20.7 µM | [30] 57.5 µM | [31] 60 µM | [32] 76 µM | [33] 50.8 µM | [34] 35.9 µM | [35] 54.3 µM | [36] 15.2 µM | [37] 19.5 µM | [38] 45.8 µM | [39] 24 µM | [40] 12.2 µM | [41] > 100 µM | [42] 14.7 µM | [43] 52.5 µM | [44] > 100 µM | [45] 83.6 µM | [46] 13.9 µM | [48] 52.1 µM | [49] 35.5 µM | [50] 25.8 µM | [51] 21.4 µM | [52] 19.5 µM | [53] 7.59 µM | [54] 50.9 µM | [55] 38.5 µM | [56] 40.9 µM | [57] 33.1 µM

O=C(Cn1c(=O)oc2ccc(C(=O)c3ccccc3Cl)cc21)c1ccc([N+](=O)[O-])cc1
inactive: [1] 8.11 µM | [2] 37.2 µM | [3] 21.9 µM | [4] 19.1 µM | [6] 40.5 µM | [7] 9.51 µM | [8] 24.2 µM | [9] 42 µM | [10] 18.1 µM | [11] 21.8 µM | [12] 22.8 µM | [13] 14.9 µM | [14] 16.3 µM | [15] 17 µM | [16] 20.8 µM | [17] 4.29 µM | [18] 32.7 µM | [19] 29.9 µM | [20] 10.9 µM | [21] 12 µM | [22] 30.1 µM | [58] 24.8 µM | [23] 11.2 µM | [24] 24.7 µM | [25] 17.8 µM | [26] 8.39 µM | [27] 22.6 µM | [28] 25.1 µM | [29] 38.5 µM | [30] 28.8 µM | [31] 17.7 µM | [32] 27.5 µM | [33] 20.1 µM | [34] 25.5 µM | [35] 22.9 µM | [36] 17 µM | [37] 8.2 µM | [38] 31.1 µM | [39] 24.2 µM | [40] 17.9 µM | [41] 37.8 µM | [42] 23.6 µM | [43] 25.4 µM | [44] 20.4 µM | [45] 24.5 µM | [46] 18.4 µM | [48] 51.1 µM | [49] 26.8 µM | [50] 18.4 µM | [51] 20.6 µM | [52] 19.6 µM | [53] 34.2 µM | [54] 47.6 µM | [55] 25.2 µM | [56] 14.9 µM | [57] 23.6 µM
active: [5] 0.824 µM
17.7 µM: [47]

O=C1Nc2cccc(C(F)(F)F)c2/C1=N/Nc1ccccc1[N+](=O)[O-]
active: [22] 0.836 µM | [26] 0.912 µM | [42] 0.404 µM
inactive: [1] 56.6 µM | [2] 27.3 µM | [3] 30.2 µM | [4] > 100 µM | [5] 25.6 µM | [6] 51.5 µM | [7] 11.4 µM | [8] 11.6 µM | [9] 33 µM | [10] 17.7 µM | [11] 16.4 µM | [12] 37.6 µM | [13] 22.4 µM | [14] 21.4 µM | [15] 17.5 µM | [16] 28.4 µM | [17] 40.6 µM | [18] 16.1 µM | [19] 21 µM | [20] 16.9 µM | [21] 51.3 µM | [58] 40.9 µM | [23] 32.9 µM | [24] 26.1 µM | [25] 37.6 µM | [27] 30.8 µM | [28] 25.1 µM | [29] > 100 µM | [31] 18.7 µM | [33] 5.97 µM | [35] 14.4 µM | [36] 17.1 µM | [37] 28.6 µM | [38] 10.3 µM | [39] 36.4 µM | [40] 28.7 µM | [41] 63.5 µM | [59] > 100 µM | [43] 22.1 µM | [44] > 100 µM | [45] 23.4 µM | [46] 17.8 µM | [48] 14.8 µM | [49] 33 µM | [50] > 100 µM | [51] 29.4 µM | [52] 15.5 µM | [53] 23.1 µM | [54] 86.5 µM | [55] 48 µM | [56] 17 µM | [57] 33.9 µM
34.4 µM: [47]
